From patent publication US6803195B1, “Facile detection of cancer and cancer risk based on level of coordination between alleles” (Ramot At Tel-Aviv University Ltd., priority 1999, dated 2004)

Key:
[1] = test system: PHA-stimulated lymphocytes of non-cancerous individuals; test: FISH replication assay, lymphocytes of non-cancerous individuals grown with 5-azacytidine (Example 6); type: cell-based, human; conditions: for percentage of SD cells, mean value in AZA-exposed non-cancerous samples: samples 16-30, 72 hours, mean ± standard deviation
Method: Each subject donated five ml of peripheral blood. Cell cultures of PHA-stimulated lymphocytes were set up according to standard protocol (Rooney and Czepulkowsli, 1992). Briefly, 0.5 ml of peripheral blood was introduced into a 15 ml test tube containing 5ml F-10 medium supplemented with 20% fetal calf serum, 0.2% heparin, 1% penicillin/streptomycin antibiotic solution (Biological industries, Israel) and 3% phytohemagglutinin (PHA). In addition, all the 15 samples derived from the hematological patients (samples 1-15) and 15 of the 41 samples derived from non-cancerous subjects (samples 16-30) were also grown in the presence of 10^−7M 5-azacytidine (AZA; Sigman, USA) added to the other ingredients described above.
After 72 hours at 37° C., colchicine (Sigma, USA) was added to each sample (final concentration of 5×10^−7M for one hour) followed by hypotonic treatment (0.075 M KC1 at 37° C. for 15 minutes) and four washes, each with a fresh cold (−20° C.) 3:1 solution of methanol: acetic acid. The cell suspensions were stored at −20° C. until used for FISH.
Six diverse loci were tested using directly labeled commercial probes obtained from Vysis: (i) the SNRPN probe (32-190004); (ii) the TP53 probe (32-190006); (iii) the AML1 probe (LSI 21; 32-190002); (iv) the RB1 probe (LSI 13; 32-190001); (v) the α-satellite probe specific for centromere 17 (32-130017, hereafter marked as CEN17); and (vi) the satellite III probe specific for centromere 15 (32-1300015, hereafter marked as CEN15). The SNRPN probe identifies the Prader-Willi/Angelman syndrome region on 15q11-13 and is the most well characterized imprinted region in man (Ozoelik et al 1992). The TP53 probe identifies the p53 gene mapped to […] and is a tumor suppressor gene whose deletion and/or inactivation is implicated in over 50% of all human tumors (Prokocimer et al 1998). The AML1 probe recognizes a gene mapped to chromosome 21q22, which is one of the most frequently translocated genes in human blood malignancy (Look 1997). […] It is located on chromosome 13q14, and encodes the retinoblastoma protein. Both centromere specific probes (CEN17 and CEN15) identify non-coding loci implicated with chromosomal segregation and stability and are usually used for the enumeration of chromosome 17 and 15, respectively. Also the AML1 and RB1 probes, although not identifying centromeric regions, were both approved by the FDA to replace centromere specific probes for the enumeration of chromosomes 21 and 13, respectively.
A standard protocol was followed, as recommended by Ingen Laboratories (currently Insitus Biotechnologies), with few minor changes. Probes were diluted in Ingen's DenHyb solutions D001 to 400 folds (CEN17 and CEN15) and in D003 to 100 fold (AML1; RB1) or 50 fold (TP53; SNRPN) instead of the hybridization solution supplied with the probe. Five μl of the probe solution was placed on the targeted area of the sample slides and covered with a 12 mm round silanized coverslip (Ingen laboratories, USA) at 76° C. and denatured for six minutes at that temperature. The slide-filled aluminum slide tray was then transferred into an HybBox (Ingen Laboratories, USA), covered and allowed to hybridize overnight in the box.
Each of the 15 samples derived from the noncancerous subjects (samples 16-30) grown in the presence of AZA was also analyzed with each of the six probes used.
Slides were analyzed blindly on an Olympus BH2 fluorescent microscope, using a triple band-pass filter (Chroma technology). For the replication assay (Boogs and Chinault, 1997) at least 100 cells, containing two well-defined hybridization signals were scored from each sample, for each probe and for each treatment, following one-color FISH. The structure of each signal, either singlet (S), representing a non-replicated sequence, or doublet (D), disclosing a replicated sequence, was noted FIG. 1. […]

[2] = test system: lymphocytes of prostate cancer patients (CAP) and control subjects (BPH); test: FISH determination of allelic loss in CAP and BPH lymphocytes with and without 5-azacytidine (Example 7); type: cell-based, human; conditions: CAP samples 1-6 and BPH samples 1-6, presence vs absence of AZA
Method: Each sample was set up for short-term culturing in F10 medium supplemented with 20% fetal calf serum (FCS), 3% phytohemagglutinin (PHA), 0.2% heparin, and 1% antibiotics (a standard solution of penicillin and streptomycin). Cultures were incubated at 37° C. for 72 hours and then colchicine (final concentration 0.1 μg/ml) was added to the culture for one hour, followed by hypotonic treatment (0.075 M KC1 at 37° C. for 15 minutes) and four washes each with a fresh cold 3:1 methanol: acetic acid solution. The cell suspensions were stored at −20° C. until used for fluorescence in situ hybridization (FISH). […]
Slides were analyzed blindly on an Olympus BH2 fluorescent microscope, using a triple band-pass filter (Chroma technology). […] For each sample and for each treatment the frequency of SD, SS and DD cells out of the total population of cells containing two fluorescent signals was recorded (for details please see Dotan et al, Genes, Chromosomes & Cancer 27:270-277, 2000). For the determination of allelic losses at least 200 cells from the same preparation used for replication studied were analyzed for each tested sample. […]

Nc1ncn([C@@H]2O[C@H](CO)[C@@H](O)[C@H]2O)c(=O)n1 [AZA, 5-azacytidine]
percentage of SD cells, mean value in AZA-exposed non-cancerous samples ([1]; AML1 locus, 10^-7M AZA): 21.5±4.5%
percentage of SD cells, mean value in AZA-exposed non-cancerous samples ([1]; CEN15 locus, 10^-7M AZA): 20.9±3.8%
percentage of SD cells, mean value in AZA-exposed non-cancerous samples ([1]; CEN17 locus, 10^-7M AZA): 20.9±5.0%
percentage of SD cells, mean value in AZA-exposed non-cancerous samples ([1]; RB1 locus, 10^-7M AZA): 22.3±3.9%
percentage of SD cells in AZA-exposed non-cancerous samples, range ([1]; TP53, AML1, RB1, CEN17 and CEN15, 10^-7M AZA): 12-29%
percentage of SD cells, mean value in AZA-exposed non-cancerous samples ([1]; TP53 locus, 10^-7M AZA): 20.4±4.4%
combined SD frequency (mean of TP53, AML1, RB1, CEN17 and CEN15) per sample, range ([1]; non-cancerous samples exposed to AZA): 16.7-24.6%
frequency of cells showing a loss of one copy of AML1, TP53, CMYC, RB1, D15Z1 and SNRPN [2]: Neither the CAP samples nor the BPH samples were affected
